Experimental data reported in patent publication US20250152488A1, “SKIN BRIGHTENING COMPOSITION” (Conopco, Inc., d/b/a UNILEVER, priority 2022, published 2025).

system: Human primary melanocytes; assay: Melanin synthesis on melanocyte cells in vitro (melanin content assay); format: cell-based; settings: 72 hrs treatment with actives in MGM media at the stated wt %; absorbance 405 nm
Procedure: Experiments were carried out on melanocyte cells using the actives as shown in Table-3 using the procedure given below; • 1. Human primary melanocytes were seeded at a density of 5×10^4 per well into a 24 well plate with fresh melanocyte growth media (MGM). • 2. Post 24 hrs seeding, cells were treated with actives in fresh MGM media and incubated for 72 hrs at 5% CO2/37° C. incubator. • 3. After 72 h of incubation, melanin estimation was done. Melanin content estimation: Cell culture spent media was removed and cells were washed once with 200 μl of 1×PBS. […] Then 100 μl of this lysate was transferred to a fresh 384 well plate and absorbance was measured spectrophotometric at 405 nm with a micro plate reader.

Q: CC(O)CN(CCN(CC(C)O)CC(C)O)CC(C)O (stereo not drawn) [D, tetrahydroxypropyl ethylenediamine] was tested. Which “Melanin synthesis (% of control)” value did it give?
A: 91 % of control

Q: For NC(=O)c1cccnc1 [E, niacinamide], which “Melanin synthesis (% of control)” value is on record?
A: 97 % of control

Q: Which “Melanin synthesis (% of control)” value does the source give for CCCCCCC(O)CCCCCCCCCCC(=O)O (stereo not drawn) [F, 12-hydroxystearic acid] here?
A: 98 % of control
